Measured values reported in ChEMBL document CHEMBL2363022, “Malaria Box Schistosomiasis Screening Data” (2013).

Columns and labels:
Assay type in all cases: functional
Parameters in all cases: scale not given here
Schistosoma mansoni [1] = test system: Schistosoma mansoni
Schistosoma mansoni [2] = test system: Schistosoma mansoni; remark: listed apart in the source
Schistosoma mansoni [3] = test system: Schistosoma mansoni; remark: listed apart in the source

Structure (SMILES) | Toxicity (Schistosoma mansoni [1]) | Toxicity (Schistosoma mansoni [2]) | Toxicity (Schistosoma mansoni [3])
CCOc1ccc(Nc2ccnc3cc(Cl)ccc23)cc1 | 0 | 0 | 2
O=C(NCCCN1CCC(N2CCCCC2)CC1)C1=Cc2cc(Br)ccc2OC1 | 4 | 1 | 0
CCCc1c(C)nc2ccccc2c1O | 0 | 0 | 0
CCOc1cc2c(cc1OCC)C(c1cc(Cl)ccc1O)NCC2 (configuration not stated) | 0 | 1 | 0
Cc1ccc(-c2cc(C(=O)Nc3ccc(S(=O)(=O)N4CCCCC4)cc3)[nH]n2)c(O)c1 | 0 | 0 | 0
O=C(NNc1cc(N2CCCC2)nc(N2CCCC2)n1)c1ccccc1 | 4 | 0 | 1
Cc1nc2ccccc2c(O)c1CC=C(Cl)Cl | 0 | 0 | 0
COc1ccccc1CNC(=O)CCn1c(=O)[nH]c2ccsc2c1=O | 0 | 0 | 0
Fc1ccc2[nH]c3c(NCCCN4CCOCC4)ncnc3c2c1 | 1 | 0 | 0
O=C(Cc1ccccc1)NC(c1ccc(Cl)cc1)c1c(O)ccc2ccccc12 (configuration not stated) | 2 | 1 | 2
CN1CCN(c2ncnc3c2[nH]c2ccc(Cl)cc23)CC1 | 0 | 0 | 0
Cn1c(C(=O)c2cccc3ccccc23)nc2ccccc21 | 0 | 0 | 0
O=C(NCC(c1ccsc1)N1CCCCCC1)c1ccc(C(F)(F)F)cc1 (configuration not stated) | 0 | 0 | 0
CCN(CC)c1ccc(NC(=O)c2cccs2)cc1 | 0 | 0 | 0
O=C(NC1CCCCC1)C(c1cccs1)N(CCc1ccccc1)C(=O)c1ccco1 (configuration not stated) | 0 | 0 | 0
COc1ccc(C2c3ccc4ccccc4c3Oc3ncn(CCCn4ccnc4)c(=N)c32)cc1OC (configuration not stated) | 0 | 0 | 0
COc1cc(-c2nc(-c3ccc(Sc4ccccc4)cc3)c(-c3ccccc3)[nH]2)cc(OC)c1O | 0 | 0 | 0
CCN1CCN(c2cc(C)c3cc(NC(=O)c4ccc(OC)c(OC)c4)ccc3n2)CC1 | 0 | 0 | 1
O=C(Nc1ccc(-c2nc3cc4ccccc4cc3[nH]2)cc1)c1cccc(Br)c1 | 2 | 0 | 0
CCCc1cc(O)c2c3c(c(=O)oc2c1)CN(C)CC3 | 0 | 0 | 0
CCOC(=O)C1=C(c2ccccc2)N=c2sc(=Cc3cc(C)n(-c4ccc(F)cc4)c3C)c(=O)n2C1c1cccc(OC)c1OC (configuration not stated) | 0 | 0 | 0
CCCN(CCC)CC(O)COc1ccccc1C(=O)Nc1ccccc1 (configuration not stated) | 0 | 0 | 0
O=C(Nc1ccc(Br)cc1)Nc1cccc(Cl)c1 | 3 | 0 | 0

Structure (SMILES) | Toxicity (Schistosoma mansoni [1]) | Toxicity (Schistosoma mansoni [2]) | Toxicity (Schistosoma mansoni [3])
CCOc1cc(Cl)c(C(C)NC(=O)c2ccccc2)cc1OCC (configuration not stated) | 0 | 0 | 0
O=C(Nc1ccsc1C(=O)NC1CCCCC1)c1ccc(F)cc1 | 0 | 0 | 2
O=C(Nc1ccc(CN2CCOCC2)cc1)c1ccc(-c2cc(Cl)ccc2Cl)o1 | 0 | 2 | 0
CCCCc1c(C)nc2c(OC)cccc2c1O | 0 | 0 | 0
Oc1ccc(-c2nc(-c3ccc4oc5ccc(-c6[nH]c(-c7ccc(O)cc7)nc6-c6ccccc6)cc5c4c3)c(-c3ccccc3)[nH]2)cc1 | 0 | 0 | 0
COc1ccc(-n2ccnc2SCC(=O)Nc2cc(C)ccc2C)c(OC)c1 | 1 | 1 | 1
COc1cc(CNCCc2ccc(Cl)cc2)cc(OC)c1O | 0 | 0 | 0
CCN(CC)CCCNc1ccnc2cc3ccccc3cc12 | 2 | 2 | 2
c1ccc(-c2ccc(-c3nc4ccccc4[nH]3)cc2)cc1 | 0 | 0 | 0
O=C(CSc1ccc2nnc(-c3cccc(F)c3)n2n1)Nc1ccc2c(c1)OCO2 | 0 | 0 | 0
COc1ccc2nc(C)cc(Nc3ccccc3O)c2c1 | 0 | 0 | 0
COc1ccc2c(c1)C1(Nc3ccccc3-c3nc4ccccc4n31)C(=O)N2 (configuration not stated) | 0 | 0 | 0
Cc1cc(NC(=O)c2ccc(-c3ccccc3)cc2)no1 | 0 | 0 | 0
O=C1c2ccccc2-c2nnc(-c3ccc(Br)cc3)cc21 | 0 | 0 | 0
COc1ccc(OC)c(C2C3=C(CC(C)(C)CC3=O)N(c3ccc(Cl)c(Cl)c3)C3=C2C(=O)CC(C)(C)C3)c1 | 1 | 0 | 1
COc1ccc(-c2cc(=O)oc3c4c(ccc23)OCN(Cc2ccc(F)cc2)C4)cc1 | 0 | 0 | 0
Cc1ccc(NC(=O)Nc2cccc(Cl)c2)cc1F | 0 | 0 | 1
CCN(CC)CCNc1ccnc2cc3ccccc3cc12.O=P(O)(O)O | 3 | 3 | 2
CCN(Cc1ccccc1)C1CCN(Cc2cc(Br)ccc2O)CC1.O=C(O)C(=O)O | 0 | 0 | 0
FC(F)(F)c1ccc(Nc2nnnc3ccccc23)cc1 | 0 | 0 | 1
Cc1ccc(C2CC(C(F)(F)F)n3nc(C(=O)N4CCN(C(c5ccccc5)c5ccccc5)CC4)cc3N2)cc1 (configuration not stated) | 0 | 0 | 0
CN(C)c1ccc(C(O)(c2ccc(N(C)C)cc2)c2ccc(N(C)C)cc2)cc1 [METHYLROSANILINE] | 4 | 2 | 2
C=C(C)CCC(C)N1CCC(N2CCC(C(=O)NCCc3ccccc3)CC2)CC1 (configuration not stated) | 2 | 0 | 0

Structure (SMILES) | Toxicity (Schistosoma mansoni [1]) | Toxicity (Schistosoma mansoni [2]) | Toxicity (Schistosoma mansoni [3])
COc1ccc(C(=O)Nc2ccc(Cl)cc2C(=O)Nc2ccncc2)cc1 | 0 | 0 | 0
CC1CC(C)CN(C(=O)c2ccc(Cl)cc2Cl)C1 (configuration not stated) | 0 | 0 | 0
c1ccc(Cn2c(N=Nc3c(Nc4ccccc4)ccc4ccccc34)nc3ccccc32)cc1 | 0 | 0 | 0
Cc1c(C)n(Cc2ccc(F)cc2)c2ccc(C(=O)NCc3ccco3)cc12 | 2 | 2 | 1
CN(N=O)C1=C(NC2CCCCC2)C(=O)c2ccccc2C1=O | 0 | 0 | 0
Cc1cc(Nc2ccc(Cl)cc2)n2nc(C(F)(F)F)nc2n1 | 0 | 0 | 0
CC(NCc1ccccc1)c1cc(Cl)ccc1O (configuration not stated) | 0 | 0 | 2
CCOC(=O)c1c(NC(=O)c2ccccc2)sc2c(O)c(CN(CC)CC)ccc12 | 0 | 0 | 0
COc1ccc(Nc2nc(N/N=C/c3ccc(O)cc3)nc(Nc3ccc([N+](=O)[O-])cc3)n2)cc1 | 0 | 0 | 0
CCOC(=O)c1c(C)n(-c2ccccc2)c2ccc(OC(=O)c3cc(OC)c(OC)c(OC)c3)cc12 | 0 | 0 | 0
COc1ccc(-c2nonc2NC(=O)c2cccc(C)c2)cc1OC | 0 | 0 | 0
C[n+]1c2ccccc2nc2ccc(NCCO)cc21 | 3 | 0 | 0
O=C(Nc1ccc(N2CCN(Cc3ccccc3)CC2)cc1)c1cccs1.O=C(O)C(F)(F)F | 0 | 0 | 0
O=C(O)C1Cc2c([nH]c3ccccc23)C(c2ccc(Cl)cc2Cl)N1 (configuration not stated) | 0 | 0 | 0
OC(CNCC1CCCO1)Cn1c2ccc(Cl)cc2c2cc(Cl)ccc21 (configuration not stated) | 0 | 0 | 0
CCN(CC)CCNc1ccnc2cc(Cl)ccc12 | 0 | 0 | 0
Cl.c1ccc2c(NCCCCCCNc3c4c(nc5ccccc35)CCCC4)c3c(nc2c1)CCCC3 | 4 | 4 | 4
CCOc1ccc(/C=C/c2nc(=O)c3ccccc3o2)cc1 | 0 | 0 | 0
CN(C)c1ccc(N=Cc2ccc(N3CCOCC3)cc2)cc1 | 0 | 0 | 0
COc1cccc(Nc2nc(N)c3ccccc3n2)c1.Cl | 0 | 0 | 0
CCOC(=O)C1=CN(C)C=C(C(=O)OCC)C1c1cc(Br)c(OCC)c(OC)c1 | 0 | 0 | 0
COc1ccc(N2CCN(C(CNC(=O)CC(C)(C)C)c3ccc4c(c3)OCO4)CC2)cc1 (configuration not stated) | 0 | 0 | 0
COc1ccc(-c2c(C)nn3c(N)c(C#N)cnc23)cc1OC | 1 | 1 | 1
